Data published in the NIST ThermoML archive (doi:10.1016/j.fluid.2005.09.019).

What was measured:
[1] = wn = mass fraction of the nth substance listed; details: Other PVT measurement
[2] = Crystal; visual observation

CCCCCCCCOC(=O)c1ccccc1-c1ccccc1C(=O)OCCCCCCCC [dioctyl [1,1'-biphenyl]-2,2'-dicarboxylate] + O=C=O
[1], Fluid (supercritical or subcritical phases)
Details | mass density [kg/m3]
294.15 K, 29730 kPa, w1 = 0.55 | 926
294.75 K, 7070 kPa, w1 = 0.019 | 786
294.95 K, 61930 kPa, w1 = 0.374 | 942
296.95 K, 55900 kPa, w1 = 0.374 | 931
297.05 K, 11550 kPa, w1 = 0.628 | 870
298.55 K, 27860 kPa, w1 = 0.55 | 917
299.45 K, 9000 kPa, w1 = 0.019 | 784
301.15 K, 12660 kPa, w1 = 0.628 | 862
303.75 K, 60200 kPa, w1 = 0.274 | 984
308.05 K, 69130 kPa, w1 = 0.094 | 953
311.55 K, 50510 kPa, w1 = 0.274 | 965
312.35 K, 42450 kPa, w1 = 0.374 | 882
313.45 K, 26760 kPa, w1 = 0.55 | 896
316.95 K, 53240 kPa, w1 = 0.094 | 911
317.25 K, 14760 kPa, w1 = 0.019 | 750
318.45 K, 16170 kPa, w1 = 0.628 | 848
319.45 K, 53170 kPa, w1 = 0.171 | 1122
320.25 K, 44070 kPa, w1 = 0.069 | 922
322.45 K, 27040 kPa, w1 = 0.55 | 895
322.55 K, 49720 kPa, w1 = 0.206 | 1098
323.45 K, 44620 kPa, w1 = 0.274 | 934
324.25 K, 48000 kPa, w1 = 0.094 | 883
327.05 K, 41620 kPa, w1 = 0.069 | 899
329.65 K, 48240 kPa, w1 = 0.171 | 1085
330.85 K, 28520 kPa, w1 = 0.55 | 882
331.25 K, 47070 kPa, w1 = 0.206 | 1071
334.65 K, 19620 kPa, w1 = 0.628 | 838
334.65 K, 39730 kPa, w1 = 0.374 | 852
334.85 K, 19620 kPa, w1 = 0.019 | 716
337.75 K, 42720 kPa, w1 = 0.274 | 903
339.35 K, 44380 kPa, w1 = 0.094 | 845
340.95 K, 45450 kPa, w1 = 0.206 | 1040
340.95 K, 46170 kPa, w1 = 0.171 | 1048
342.45 K, 40210 kPa, w1 = 0.374 | 857
342.75 K, 39580 kPa, w1 = 0.069 | 852
351.75 K, 44960 kPa, w1 = 0.206 | 1005
352.95 K, 42930 kPa, w1 = 0.274 | 879
353.55 K, 23520 kPa, w1 = 0.628 | 828
353.85 K, 32040 kPa, w1 = 0.55 | 866
353.95 K, 45690 kPa, w1 = 0.171 | 1013
354.35 K, 43820 kPa, w1 = 0.094 | 811
355.95 K, 41140 kPa, w1 = 0.374 | 830
356.55 K, 40450 kPa, w1 = 0.069 | 821
359.75 K, 25240 kPa, w1 = 0.019 | 671
359.75 K, 45100 kPa, w1 = 0.206 | 994
367.25 K, 43820 kPa, w1 = 0.274 | 849
369.25 K, 46200 kPa, w1 = 0.171 | 970
369.85 K, 45410 kPa, w1 = 0.206 | 955
370.25 K, 44510 kPa, w1 = 0.094 | 779
371.05 K, 26730 kPa, w1 = 0.628 | 821
371.45 K, 42590 kPa, w1 = 0.374 | 816
371.55 K, 41450 kPa, w1 = 0.069 | 788
371.85 K, 34480 kPa, w1 = 0.55 | 851
375.95 K, 27720 kPa, w1 = 0.019 | 638

CCCCCCCCOC(=O)c1cccc(-c2cccc(C(=O)OCCCCCCCC)c2)c1 [dioctyl [1,1'-biphenyl]-3,3'-dicarboxylate]
Details | Normal melting temperature [°C]
[2] | 29.00

CCCCCCCCOC(=O)c1cccc(-c2cccc(C(=O)OCCCCCCCC)c2)c1 [dioctyl [1,1'-biphenyl]-3,3'-dicarboxylate] + O=C=O
[1]
Details | mass density [kg/m3]
294.95 K, 21200 kPa, Gas, w1 = 0.018 | 883
295.55 K, 15610 kPa, Gas, w1 = 0.62 | 1089
296.05 K, 6100 kPa, Fluid (supercritical or subcritical phases), w1 = 0.277 | 750
298.55 K, 6480 kPa, Fluid (supercritical or subcritical phases), w1 = 0.277 | 734
302.15 K, 7070 kPa, Fluid (supercritical or subcritical phases), w1 = 0.277 | 701
304.15 K, 7450 kPa, Fluid (supercritical or subcritical phases), w1 = 0.277 | 682
305.75 K, 23790 kPa, Gas, w1 = 0.018 | 856
306.05 K, 16070 kPa, Gas, w1 = 0.62 | 1076
312.65 K, 17750 kPa, Gas, w1 = 0.62 | 1052
313.75 K, 126340 kPa, Gas, w1 = 0.496 | 1150
318.65 K, 92850 kPa, Gas, w1 = 0.496 | 1121
324.55 K, 104160 kPa, Gas, w1 = 0.092 | 1160
324.65 K, 110450 kPa, Gas, w1 = 0.286 | 1131
326.85 K, 147870 kPa, Gas, w1 = 0.131 | 1240
328.15 K, 88980 kPa, Gas, w1 = 0.092 | 1124
329.05 K, 27960 kPa, Gas, w1 = 0.018 | 804
329.05 K, 90520 kPa, Gas, w1 = 0.286 | 1097
329.05 K, 137580 kPa, Gas, w1 = 0.256 | 1150
329.15 K, 121140 kPa, Gas, w1 = 0.388 | 1178
329.35 K, 116110 kPa, Gas, w1 = 0.201 | 1141
330.85 K, 105180 kPa, Gas, w1 = 0.388 | 1139
330.85 K, 113860 kPa, Gas, w1 = 0.256 | 1125
331.25 K, 106000 kPa, Gas, w1 = 0.131 | 1160
332.25 K, 83070 kPa, Gas, w1 = 0.286 | 1083
332.65 K, 20850 kPa, Gas, w1 = 0.62 | 1031
333.45 K, 68350 kPa, Gas, w1 = 0.496 | 1075
333.65 K, 93560 kPa, Gas, w1 = 0.201 | 1111
340.55 K, 73300 kPa, Gas, w1 = 0.092 | 1062
341.95 K, 70330 kPa, Gas, w1 = 0.286 | 1044
344.15 K, 77780 kPa, Gas, w1 = 0.388 | 1077
344.35 K, 77640 kPa, Gas, w1 = 0.256 | 1045
345.15 K, 74290 kPa, Gas, w1 = 0.201 | 1048
347.45 K, 60240 kPa, Gas, w1 = 0.496 | 1049
348.95 K, 30510 kPa, Gas, w1 = 0.018 | 760
350.05 K, 73950 kPa, Gas, w1 = 0.131 | 1054
352.15 K, 66510 kPa, Gas, w1 = 0.092 | 1019
352.95 K, 62980 kPa, Gas, w1 = 0.286 | 1010
353.95 K, 24590 kPa, Gas, w1 = 0.62 | 1013
353.95 K, 69580 kPa, Gas, w1 = 0.256 | 1015
358.75 K, 65340 kPa, Gas, w1 = 0.201 | 1005
360.85 K, 67620 kPa, Gas, w1 = 0.388 | 876
363.25 K, 57970 kPa, Gas, w1 = 0.496 | 997
365.65 K, 63340 kPa, Gas, w1 = 0.092 | 979
365.85 K, 33480 kPa, Gas, w1 = 0.018 | 726
366.35 K, 66790 kPa, Gas, w1 = 0.131 | 1002
366.65 K, 59240 kPa, Gas, w1 = 0.286 | 976
369.85 K, 63030 kPa, Gas, w1 = 0.256 | 969
370.45 K, 27170 kPa, Gas, w1 = 0.62 | 997
372.25 K, 61790 kPa, Gas, w1 = 0.201 | 968
